Laboratory results taken from ChEMBL document CHEMBL1781997, “Anticonvulsant 4-aminobenzenesulfonamide derivatives with branched-alkylamide moieties: X-ray crystallography and inhibition studies of human carbonic anhydrase isoforms I, II, VII, and XIV” (J Med Chem, 2011).

Assays:
[1] = system: Rattus norvegicus; test: Anticonvulsant activity against maximal electroshock-induced seizures in po dosed rat; type: functional
[2] = target: Carbonic anhydrase 2 (Homo sapiens, UniProt P00918)
Description: Inhibition of human carbonic anhydrase 2 preincubated with compound for 15 mins by carbon dioxide hydration assay

[3] = target: Carbonic anhydrase 14 (Homo sapiens, UniProt Q9ULX7)
Sequence of Carbonic anhydrase 14 (Q9ULX7 whole entry): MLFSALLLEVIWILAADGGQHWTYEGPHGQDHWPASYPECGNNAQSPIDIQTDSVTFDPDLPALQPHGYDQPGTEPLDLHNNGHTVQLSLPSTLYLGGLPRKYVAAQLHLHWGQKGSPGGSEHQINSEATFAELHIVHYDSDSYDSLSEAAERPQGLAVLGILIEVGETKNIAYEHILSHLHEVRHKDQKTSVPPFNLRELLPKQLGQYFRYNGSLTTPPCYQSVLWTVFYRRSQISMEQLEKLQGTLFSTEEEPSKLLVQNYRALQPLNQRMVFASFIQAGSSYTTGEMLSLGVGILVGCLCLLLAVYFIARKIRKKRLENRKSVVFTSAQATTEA
Description: Inhibition of human carbonic anhydrase 14 preincubated with compound for 15 mins by carbon dioxide hydration assay

[4] = target: Carbonic anhydrase 1 (Homo sapiens, UniProt P00915)
Sequence of Carbonic anhydrase 1 (P00915 whole entry): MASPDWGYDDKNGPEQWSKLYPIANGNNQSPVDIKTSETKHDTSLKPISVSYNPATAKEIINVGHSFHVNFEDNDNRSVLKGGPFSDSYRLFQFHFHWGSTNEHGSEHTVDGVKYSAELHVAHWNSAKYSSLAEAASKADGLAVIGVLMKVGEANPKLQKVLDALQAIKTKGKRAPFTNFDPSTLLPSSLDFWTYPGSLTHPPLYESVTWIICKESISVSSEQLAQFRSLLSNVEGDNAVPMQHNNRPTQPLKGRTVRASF
Description: Inhibition of human carbonic anhydrase 1 preincubated with compound for 15 mins by carbon dioxide hydration assay

[5] = target: Carbonic anhydrase 7 (Homo sapiens, UniProt P43166)
Sequence of Carbonic anhydrase 7 (P43166 whole entry): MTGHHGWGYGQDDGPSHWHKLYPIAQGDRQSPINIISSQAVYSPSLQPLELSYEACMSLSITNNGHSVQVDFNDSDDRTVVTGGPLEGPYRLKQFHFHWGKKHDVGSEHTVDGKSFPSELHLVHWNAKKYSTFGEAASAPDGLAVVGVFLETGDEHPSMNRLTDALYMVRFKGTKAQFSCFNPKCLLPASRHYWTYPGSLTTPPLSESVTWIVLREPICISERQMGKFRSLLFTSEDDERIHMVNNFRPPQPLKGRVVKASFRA
Description: Inhibition of human carbonic anhydrase 7 preincubated with compound for 15 mins by carbon dioxide hydration assay

SMILES | ED50 [1] | also measured
CCCC(C(=O)Nc1ccc(S(N)(=O)=O)cc1)C(C)C (configuration not stated) | 139 µmol/kg | 
CCCC(C(=O)Nc1ccc(S(N)(=O)=O)cc1)C(C)CC (configuration not stated) | 115 µmol/kg | 
CCCC(C)C(=O)Nc1ccc(S(N)(=O)=O)cc1 (configuration not stated) | 40 µmol/kg | Ki [2]: 220 nM; Ki [3]: 644 nM; Ki [4]: 1710 nM; Ki [5]: 605 nM
CCC(CC(C)C)C(=O)Nc1ccc(S(N)(=O)=O)cc1 (configuration not stated) | 56 µmol/kg | 
CC(C)(C)C(=O)Nc1ccc(S(N)(=O)=O)cc1 | 165 µmol/kg | 
CCC(CC)C(=O)Nc1ccc(S(N)(=O)=O)cc1 | 37 µmol/kg | 
CC(C)C(C(=O)Nc1ccc(S(N)(=O)=O)cc1)C(C)(C)C (configuration not stated) | 58 µmol/kg | 
CCCCC(CC)C(=O)Nc1ccc(S(N)(=O)=O)cc1 (configuration not stated) | 80 µmol/kg | 
CCC(C)C(=O)Nc1ccc(S(N)(=O)=O)cc1 (configuration not stated) | 30 µmol/kg | 
CCC(CC)C(=O)NCCc1ccc(S(N)(=O)=O)cc1 |  | Ki [2]: 33.8 nM; Ki [3]: 684 nM; Ki [4]: 407 nM; Ki [5]: 51 nM
CCCC(CC)C(=O)Nc1ccc(S(N)(=O)=O)cc1 (configuration not stated) | 41 µmol/kg | 
NS(=O)(=O)Cc1noc2ccccc12 [ZONISAMIDE] | 100 µmol/kg | 
NS(=O)(=O)c1ccc(NC(=O)Cc2ccccc2)cc1 | 55 µmol/kg | Ki [3]: 46 nM; Ki [4]: 7.6 nM; Ki [5]: 52 nM
CC(C)(C)CC(=O)Nc1ccc(S(N)(=O)=O)cc1 | 35 µmol/kg | 
CCC(C)CC(=O)Nc1ccc(S(N)(=O)=O)cc1 (configuration not stated) | 61 µmol/kg | 
CC1(C)O[C@@H]2[C@@H](CO[C@@]3(COS(N)(=O)=O)OC(C)(C)O[C@@H]23)O1 [TOPIRAMATE] | 10 µmol/kg | 
CCC(CC)C(=O)NCc1ccc(S(N)(=O)=O)cc1 | 87 µmol/kg | 
